Results reported in patent publication US8785500B2, “Intranasal administration of ketamine to treat depression” (priority 2006, dated 2014).

Assays:
[1] = in vivo; cited from earlier work
[2] = test system: men and women with intractable central neuropathic pain; conditions: cited from earlier work; for pain disability and subjective physical and mental function: 75 mg transdermally over 24 hours for 7 days
major depression [3] = conditions: reviews of antidepressant trials; cited from earlier work
[4] = clinical trials; cited from earlier work
major depression [5] = conditions: administered orally; cited from earlier work
[6] = test system: chronic pain patients with breakthrough pain (BTP); conditions: 10-50 mg intranasal; cited from earlier work
[7] = test system: subjects with major depression; conditions: cited from earlier work
[8] = in vivo; cited from earlier work; remark: listed apart in the source
[9] = test system: women after abdominal gynecological surgery with lidocaine epidural blockade; conditions: cited from earlier work
NMDA receptor = conditions: cited from earlier work
[10] = test system: non-NMDA voltage-gated potassium currents; conditions: in vitro; cited from earlier work
[11] = Intranasal versus intravenous ketamine plasma levels; conditions: human, other: intranasal
Description: The slow infusion of ketamine produces gradually increasing plasma levels during the infusion period. Dose-wise, the typical ketamine dose for surgical induction is between 1.0-2.0 mg/kg, with additional ketamine used to sustain anesthesia.

male Wistar rats = conditions: single dose; cited from earlier work
[12] = test system: subjects with DSM-IV treatment-resistant major depression; assay: Randomized, placebo-controlled, double-blind crossover study of a single intravenous ketamine hydrochloride infusion; conditions: for effect size for the drug difference (d), HDRS: ketamine vs placebo
Source text: Treatment-resistant major depression is a relatively common occurrence in clinical practice, with up to 50 to 60% of patients not achieving adequate response following antidepressant treatment. […] If the depression has not benefited from at least two adequate trials of medications from different classes in the current episode, clinically significant resistance is present. Several schemes to “stage” the degree of resistance have been proposed. The most widely accepted scheme uses the staging system of Thase and Rush. The stages of resistance are as follows:
Thus, the patient population to be treated by the present invention may be defined according to any one or more of the above schemes. After a 2-week drug-free period, exemplary subjects having treatment-resistant depression were given an intravenous infusion of either ketamine hydrochloride (0.5 mg/kg) or placebo on 2 test days, a week apart. Subjects were rated at baseline and at 40, 80 minutes, 110 minutes, 230 minutes and days 1, 2, 3 and 7 post-infusion. The outcome of the treatment was measured using changes in scores on the primary efficacy to measure the 21-item Hamilton Depression Rating Scale (HDRS).
Men and women, ages 18 to 65 years, who were inpatients with a diagnosis of major depressive disorder recurrent without psychotic features as diagnosed by means of the Structured Clinical Interview for Axis I DSM-IV Disorders—Patient Version 28 were eligible to participate.
All subjects were in good physical health as determined by medical history, physical exam, blood labs, electrocardiogram, chest x-ray, urinalysis and toxicology. Subjects were free of comorbid substance abuse or dependence for at least 3 months and judged clinically not to be a serious suicidal risk.
After a 2 week drug-free period, 18 subjects with DSM-IV major depression were randomized to an intravenous infusion of either ketamine hydrochloride (0.5 mg/kg) or placebo (saline solution) given over 40 minutes with a Baxter infusion pump on 2 test days, a week apart, in a double-blind, crossover study. Seventeen subjects received ketamine and 14 received placebo.
Subjects were rated 60 minutes prior to the infusion and at 40, 80, 110, and 230 minutes as well as 1, 2, 3, and 7 days after the infusion. The 21-item HDRS, Beck Depression Inventory Scale (BDI; [31]), Brief Psychiatric Rating Scale-positive symptoms (BPRS; [32]), Young Mania Rating Scale (YMRS; [33]), and the visual analogue scales score (VAS-depression; [34]). Raters, who trained together to establish reliability, performed patient ratings. […] Subjects were rated by a separate set of raters to help maintain blind to the infusion procedures and resulting side effects. The first set of raters administered the scales on the day of infusion (60 minutes prior to the infusion and 40, 80, 110 post-infusion). From 230 minutes onwards (days 1 through 7), a separate group of raters rated the subjects. Clinical response was defined as a 50% or greater decrease in the HDRS rating scale from baseline and remission as HDRS≦7 [35].
A full factorial, fixed effects linear mixed model with a compound symmetry covariance structure was used to examine the differences between ketamine and placebo over 9 time points from baseline to 7 days. Restricted maximum likelihood estimation was used to estimate missing values. Significant effects were examined with simple effects tests. The 21-item HDRS was the primary outcome measure. Scores from the BDI, BPRS, YMRS, and VAS were secondary outcome measures. Secondary analysis included examination of the individual items of the HDRS. Significance was evaluated at α<0.05, two-tailed.

[13] = both, human, in vivo, intravenous, 0.5 mg/kg
[14] = one day after infusion, intent to treat, n=17

For `NC1(c2ccccc2Cl)CCCCC1=O` (centres unmarked) [norketamine], the half-life [1] is given as about 5 h.
In the case of `CN[C@]1(c2ccccc2Cl)CCCCC1=O` [S(+)-ketamine], the “pain intensity (Visual Analog Scale)” value ([2]; 50 mg, 75 mg or placebo) is given as “no change among groups”, the “pain disability and subjective physical and mental function” value [2] is given as “significant improvement in pain disability, and subjective physical and mental function” and the “dissociation or psychotic symptoms” value ([2]; in vivo) is given as “no reports of dissociation or psychotic symptoms”.
For `CC(NC(C)(C)C)C(=O)c1cccc(Cl)c1` (centres unmarked) [bupropion], the “response rates at week 8” value (major depression [3]) is given as 62%.
For `Nc1nc2ccc(OC(F)(F)F)cc2s1` [riluzole], the antidepressant properties [4] is listed as “found to have antidepressant properties”.
For `CC12CC3CC(C)(C1)CC(N)(C3)C2` [memantine], the antidepressant effects (major depression [5]) is given as “did not show the low- to moderate-affinity non-competitive NMDA antagonist memantine, administered orally, to have antidepressants effects”.
In the case of `CNC1(c2ccccc2Cl)CCCCC1=O` (racemic) [ketamine, 2-(2-chlorophenyl)-2-(methylamino)-cyclohexanone], the “breakthrough pain versus placebo” value [6] is listed as “lower BTP”, the side effects [6] is listed as “very few side effects” and the “patients with 50% or greater decrease in HDRS during the 3-day follow-up period” value ([7]; Berman et al.) is listed as 4 of 8. The “onset of antidepressant effect post-infusion” value ([7]; previous study (Berman et al.)) was 230 min, the antidepressant effect ([7]; single intravenous dose, 7 subjects) was “rapid and short-lived antidepressant effect” and the “intranasal plasma levels (pain) lower than in intravenous studies in depression” value [8] was 3-4 fold. The “pain disability and subjective physical and mental function” value [2] was “significant improvement in pain disability, and subjective physical and mental function”, the side effects ([9]; transdermal 25 mg over 24 hrs) was “no side effects” and the “time to rescue analgesic” value ([9]; transdermal patch 25 mg/24 hours, placebo 94±54) was 230 ± 112 min. The “affinity for the NMDA receptor in contrast to memantine” value (NMDA receptor) was “higher affinity for the NMDA receptor”, the “affinity for the NMDA receptor versus other sites” value (NMDA receptor) was “several fold higher than that for other sites” and the “open channel blocking/unblocking kinetics in contrast to memantine” value (NMDA receptor) was “much slower open channel blocking/unblocking kinetics”. For the same compound, the “effect on non-NMDA voltage-gated potassium currents” value [10] was “only reduces non-NMDA voltage-gated potassium currents at much higher than reported in patients anesthetized with ketamine”, the half-life [1] was “approximately 2 hours” and the “i.v. dose roughly equivalent to the intranasal dose used for pain (50 mg)” value [11] was about 0.1 mg/kg. The “time for which induction of behavioral despair is interfered with” value (male Wistar rats) was “up to 10 days”, the “onset of improvement in depression post-infusion” value ([12]; HDRS vs placebo) was at most 2 h and the “effect size for the drug difference (d), HDRS” value ([12]; after 1 week, completers) was 0.68. For the same compound, the “effect size for the drug difference (d), HDRS” value ([12]; after 24 hours, completers) was 1.46, the “only time at which BPRS positive symptoms were worse on ketamine than placebo” value [12, 13] was 40 min and the “only time at which YMRS scores were worse (higher) on ketamine than placebo” value [12, 13] was 40 min. For the same compound, the “time beyond which euphoria or derealization/depersonalization did not persist” value [12, 13] was at most 110 min, the “earliest improvements, depressed mood and guilt (HDRS items)” value ([12]; completers) was 40 min and the “individual HDRS symptoms with only a significant main effect for drug” value ([12]; completers) was “symptoms improved on ketamine for suicide, insomnia, general somatic symptoms, genital symptoms, and hypochondriasis”. For the same compound, the “individual HDRS symptoms with significant time by drug interaction” value ([12]; completers) was “Depressed mood, guilt, work and interests, and psychic anxiety improved significantly”, the “time at which motor retardation and gastrointestinal symptoms (HDRS items) were worse” value ([12]; completers) was 40 min and the “time by which HDRS scores were lower on ketamine” value ([12]; first phase data only, significant through the seventh day) was 80 min. For the same compound, the “baseline HDRS in the second phase of those who received ketamine first (carryover)” value ([12]; first-phase baseline 24.9±6.9, one week after infusion) was 17.2±6.9, the “Peak change in BPRS positive symptoms on Ketamine, Group” value ([12]; group mean ±) was “+3.1 ± 3.4” and the “% Change in HDRS (day 1) Ketamine, Group” value ([12]; group mean ±, 0.5 mg/kg i.v. over 40 min, baseline to day 1) was −56.2 ± 20.4%. For the same compound, the “side effects occurring more commonly on ketamine than placebo” value ([12]; in vivo) was “perceptual disturbances, confusion, elevations in blood pressure, euphoria, dizziness, and increased libido”, the “time after infusion within which side effects ceased” value ([12]; majority of side effects) was at most 80 min and the “subjects meeting remission criteria (HDRS≦7)” value [12, 14] was 29%. The “subjects meeting response criteria (50% or greater decrease in HDRS)” value [12, 14] was 71%, the “subjects who maintained response at least 2 weeks” value ([12]; single infusion 0.5 mg/kg) was 2 subjects and the “subjects who maintained response for at least 1 week” value ([12]; single infusion 0.5 mg/kg) was 35%. For the same compound, the “time from which VAS depression (mood) improved on ketamine” value ([12]; through 7 days) was 40 min and the “time from which self-rated BDI improved on ketamine” value ([12]; through 7 days, completers) was 40 min.
For `Nc1nnc(-c2cccc(Cl)c2Cl)c(N)n1` [lamotrigine], the antidepressant properties [4] is listed as “found to have antidepressant properties”.
In the case of `COc1ccc(C(CN(C)C)C2(O)CCCCC2)cc1` (centres unmarked) [venlafaxine], the “response rates at week 8” value (major depression [3]) is given as 65%.
